Test results taken from ChEMBL document CHEMBL1155912, “Synthesis of 6- or 4-functionalized indoles via a reductive cyclization approach and evaluation as aromatase inhibitors” (Bioorg Med Chem Lett, 2008).

These compounds were tested against T1, CYP17 (steroid 17-alpha-hydroxylase/17,20 lyase) (Homo sapiens, UniProt P05093) (assay: in vitro).
T1 sequence (P05093 whole entry): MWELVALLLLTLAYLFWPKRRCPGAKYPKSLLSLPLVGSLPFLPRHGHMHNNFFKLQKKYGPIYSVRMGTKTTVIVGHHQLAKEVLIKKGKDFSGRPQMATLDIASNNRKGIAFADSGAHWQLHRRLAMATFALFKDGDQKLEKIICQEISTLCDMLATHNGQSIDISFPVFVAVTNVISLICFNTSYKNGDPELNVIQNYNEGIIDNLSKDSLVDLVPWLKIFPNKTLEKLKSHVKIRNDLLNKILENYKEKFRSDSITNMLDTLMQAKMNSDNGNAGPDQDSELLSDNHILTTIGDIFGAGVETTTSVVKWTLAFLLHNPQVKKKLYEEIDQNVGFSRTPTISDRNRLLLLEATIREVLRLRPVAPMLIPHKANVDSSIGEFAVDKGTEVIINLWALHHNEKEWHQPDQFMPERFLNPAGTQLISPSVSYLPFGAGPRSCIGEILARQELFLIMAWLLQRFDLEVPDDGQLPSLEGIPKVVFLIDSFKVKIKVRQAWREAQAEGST
Description: Inhibition of human CYP17 expressed in Escherichia coli pJL17/OR coexpressed with rat NADPH-P450 reductase at 2.5 uM

| inhibition at 2.5 µM | SMILES |
| --- | --- |
| 18% | N#Cc1ccc(C(c2cccc3[nH]ccc23)n2ccnc2)cc1 (stereo not drawn) |
| < 10% | N#Cc1ccc(C(c2cccc3[nH]ccc23)n2cncn2)cc1 (stereo not drawn) |
| 26% | N#Cc1ccc(C(c2ccc3cc[nH]c3c2)n2ccnc2)cc1 (racemic) |
